# Tested on: Pyricularia grisea
# Assay: Antifungal activity against Magnaporthe grisea
# Format: functional
row,SMILES,MIC [µM]
1,CCCC[C@H](O)/C=C/C(=O)O[C@@H]1[C@@H](C)[C@@H]2OC(=O)C(C)=C[C@@]2(C)O[C@H]1C [BOTCININ D],12.5
2,CCCC[C@H](O)/C=C/C(=O)O[C@@H]1[C@@H](C)[C@@H]2OC(=O)[C@H](C)[C@H](O)[C@@]2(C)O[C@H]1C [3-O-DEACETYLBOTCININ A],100
3,CCCCCC[C@H](O)/C=C/C(=O)O[C@@H]1[C@@H](C)[C@@H]2OC(=O)[C@H](C)[C@H](OC(C)=O)[C@@]2(C)O[C@H]1C [BOTCININ B],12.5
4,CCCC[C@H](O)/C=C/C(=O)O[C@@H]1[C@@H](C)[C@H](O)[C@@](C)([C@@H](O)[C@@H](C)C(=O)O)O[C@H]1C [BOTCINIC ACID],100
5,CCCC[C@H](O)/C=C/C(=O)O[C@@H]1[C@@H](C)[C@@H]2OC(=O)[C@@H](C)[C@H](O)[C@@]2(C)O[C@H]1C [BOTCININ F],100

# Reference: ChEMBL document CHEMBL1157344, “Botcinins E and F and Botcinolide from Botrytis cinerea and structural revision of botcinolides” (2006)
